Reference: PubChem BioAssay (NCI)
Where “and” joins values, the source holds several entries; their conditions need not be identical. Equal values may be shown once.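 Cultured in 96-well plates, cells were exposed to test compound for 48 hours across five concentrations. At the GI50, growth is halved. TGI is the concentration that stops growth completely.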

Legend:
Assay in all cases: NCI tumour cell line growth inhibition, 48 h
[1] = test system: NCI-H226 lung
[2] = test system: SK-MEL-5 melanoma
[3] = test system: UACC-62 melanoma
[4] = test system: EKVX NSCLC
[5] = test system: LOX IMVI melanoma
[6] = test system: SK-MEL-28 melanoma
[7] = test system: UACC-257 melanoma
[8] = test system: K-562 leukemia
[9] = test system: HL-60(TB) leukemia
[10] = test system: SNB-19 CNS

Row | SMILES | TGI [1] | TGI [2] | TGI [3] | TGI [4] | TGI [5] | TGI [6] | TGI [7] | TGI [8] | TGI [9] | TGI [10] | GI50 [1] | GI50 [2] | GI50 [3] | GI50 [4] | GI50 [5] | GI50 [6] | GI50 [7] | GI50 [8] | GI50 [9] | GI50 [10]
1 | O=C(CC1(O)C(=O)Nc2ccccc21)c1ccc(O)cc1 (stereo unspecified) | > 100 µM | > 100 µM | > 100 µM | > 100 µM | > 100 µM | > 100 µM | > 100 µM | > 100 µM | > 100 µM | > 100 µM |  |  |  |  |  |  |  |  |  | 
2 | C[n+]1c(-c2ccc(/C=N/NC(=O)c3ccc(C(=O)N/N=C/c4ccc(-c5cn6ccccc6[n+]5C)cc4)cc3)cc2)cn2ccccc21 | 283 µM | > 94.9 µM and 634 µM | 316 µM | > 1000 µM | > 1000 µM | 406 µM | 97.5 µM and 322 µM | 259 µM | 186 µM | 517 µM | 124 µM | 155 µM | 177 µM | > 1000 µM | 846 µM | 258 µM | 182 µM | 132 µM | 2.37 µM | 248 µM
3 | Cc1cc(C(=O)O)c(C)n1-c1cccc(C(=O)O)c1 | > 100 µM | > 100 µM | > 100 µM | > 100 µM | > 100 µM | > 100 µM | > 100 µM | > 100 µM | > 100 µM | > 100 µM | > 100 µM | > 100 µM | > 100 µM | > 100 µM | > 100 µM | > 100 µM | > 100 µM | > 100 µM | > 100 µM | > 100 µM
4 | Cn1c2ccccc2c2c3[nH][nH]c(=O)c3c3c4ccccc4[nH]c3c21 | 22.6 µM | 5.04 µM | 5.81 µM | 8.1 µM | 6.62 µM | 12.9 µM |  | 15.9 µM | 6 µM | > 100 µM | 2.34 µM | 1.37 µM | 2.07 µM | 2.41 µM | 1.09 µM | 3.74 µM |  | 3.3 µM | 2.46 µM | 3.05 µM
5 | C/C(=N\N=C(\[Se])N(C)C)c1ccccn1 | 5.27 µM | 1.75 µM | 2.4 µM | 11.6 µM | 12.8 µM | 18.9 µM | 0.162 µM | 23.6 µM | 0.343 µM | 15.9 µM |  |  |  |  |  |  |  |  |  | 
6 | COc1cc(N2CCN(C(C)C)CC2)ccc1Nc1nc(Nc2cccc(F)c2C(=O)O)c2cc[nH]c2n1 | > 25 µM | > 25 µM | > 25 µM | > 25 µM | > 25 µM | > 25 µM | > 25 µM | > 25 µM | > 25 µM | > 25 µM | > 25 µM | > 25 µM | > 25 µM | > 25 µM | > 25 µM | > 25 µM | > 25 µM | > 25 µM | > 25 µM | > 25 µM
7 | CC(C)CC(Nc1c(O)ccc2ccccc12)C(=O)O (stereo unspecified) | 62.1 µM | 38.7 µM | 72.3 µM | 58.3 µM | > 100 µM | > 100 µM | 50.3 µM | > 100 µM | > 100 µM | > 100 µM |  |  |  |  |  |  |  |  |  | 
8 | c1cncc(C2Nc3cccc4cccc(c34)N2)c1 | > 100 µM | > 100 µM | > 100 µM | > 100 µM | 57.6 µM | > 100 µM |  | > 100 µM | > 100 µM | > 100 µM | 80.5 µM | 66.3 µM | 38.7 µM | 36 µM | 21.7 µM | 64 µM |  | 28.8 µM | 36.6 µM | > 100 µM
9 | CN1CCN(c2nc(NCCCNc3ccnc4cc(Cl)ccc34)c3ccccc3n2)CC1 | 41.4 µM | 3.18 µM | 3.86 µM | 25.3 µM | 4.2 µM | 4.22 µM | 3.83 µM | 10.9 µM | 4.39 µM | 15.3 µM | 18.9 µM | 1.78 µM | 1.95 µM | 11.4 µM | 1.96 µM | 2.17 µM | 2.02 µM | 2.64 µM | 2.14 µM | 3.77 µM
10 | COC(=O)C1C=NNC1C(=O)OC (stereo unspecified) | > 100 µM | > 100 µM | > 100 µM | > 100 µM | > 100 µM |  | > 100 µM | > 100 µM | > 100 µM | > 100 µM |  |  |  |  |  |  |  |  |  | 
11 | C=C1C2CC(OC(C)=O)C3(C)C(c4ccoc4)OC(=O)[C@@H](O)[C@]13OC1C[C@H](OC(C)=O)C(C)(C)[C@H](CC(=O)OC)[C@]12C (stereo partly specified) | > 100 µM | > 100 µM | > 100 µM | > 100 µM | > 100 µM | > 100 µM |  | > 100 µM | > 100 µM | > 100 µM |  |  |  |  |  |  |  |  |  | 
12 | COc1ccc(/C(Cl)=C(\c2ccc(OCCN(C)C)cc2)c2ccc(OC(=O)C(C)(C)C)cc2)cc1 | 25.7 µM | 27 µM | 28 µM | 26.6 µM | 19.4 µM | 23.1 µM |  | 14.3 µM | 21.1 µM | 29.5 µM |  |  |  |  |  |  |  |  |  | 
13 | COc1cc(C2C3=C(COC3=O)Nc3c2ccc2c3CCCC2)cc2c1OCO2 (stereo unspecified) | 0.185 µM | 0.199 µM | > 100 µM | > 100 µM | > 100 µM | > 100 µM |  | > 100 µM | 0.09 µM | > 77.4 µM | 0.0343 µM | 0.0381 µM | 0.0462 µM | 0.0908 µM | 0.0652 µM | 0.0547 µM |  | 0.0351 µM | 0.0316 µM | 0.0531 µM
